Consider 16 molecules from ChEMBL document CHEMBL4033722, “Carboxylated aurone derivatives as potent inhibitors of xanthine oxidase” (Bioorg Med Chem, 2017).

Data set [1] deals with T1, Xanthine dehydrogenase/oxidase (Bos taurus, UniProt P80457). In words: Inhibition of bovine milk xanthine-oxidase using xanthine as substrate after 5 mins by spectrophotometric method.
The target of data set [2] is T1, Xanthine dehydrogenase/oxidase. Put plainly: Mixed-type inhibition of bovine milk xanthine oxidase assessed as enzyme-inhibitor complex using varying levels of xanthine as substrate by Line-weaver burk plot analysis.
The target is the same in data set [3]. Put plainly: Mixed-type inhibition of bovine milk xanthine oxidase assessed as enzyme-substrate-inhibitor complex using varying levels of xanthine as substrate by Line-weaver burk plot analysis.
The target is the same in data set [4]. In words: Inhibition of bovine milk xanthine-oxidase up to 10 uM using xanthine as substrate after 5 mins by spectrophotometric method. The note with it: cattle.

T1 sequence (P80457 whole entry): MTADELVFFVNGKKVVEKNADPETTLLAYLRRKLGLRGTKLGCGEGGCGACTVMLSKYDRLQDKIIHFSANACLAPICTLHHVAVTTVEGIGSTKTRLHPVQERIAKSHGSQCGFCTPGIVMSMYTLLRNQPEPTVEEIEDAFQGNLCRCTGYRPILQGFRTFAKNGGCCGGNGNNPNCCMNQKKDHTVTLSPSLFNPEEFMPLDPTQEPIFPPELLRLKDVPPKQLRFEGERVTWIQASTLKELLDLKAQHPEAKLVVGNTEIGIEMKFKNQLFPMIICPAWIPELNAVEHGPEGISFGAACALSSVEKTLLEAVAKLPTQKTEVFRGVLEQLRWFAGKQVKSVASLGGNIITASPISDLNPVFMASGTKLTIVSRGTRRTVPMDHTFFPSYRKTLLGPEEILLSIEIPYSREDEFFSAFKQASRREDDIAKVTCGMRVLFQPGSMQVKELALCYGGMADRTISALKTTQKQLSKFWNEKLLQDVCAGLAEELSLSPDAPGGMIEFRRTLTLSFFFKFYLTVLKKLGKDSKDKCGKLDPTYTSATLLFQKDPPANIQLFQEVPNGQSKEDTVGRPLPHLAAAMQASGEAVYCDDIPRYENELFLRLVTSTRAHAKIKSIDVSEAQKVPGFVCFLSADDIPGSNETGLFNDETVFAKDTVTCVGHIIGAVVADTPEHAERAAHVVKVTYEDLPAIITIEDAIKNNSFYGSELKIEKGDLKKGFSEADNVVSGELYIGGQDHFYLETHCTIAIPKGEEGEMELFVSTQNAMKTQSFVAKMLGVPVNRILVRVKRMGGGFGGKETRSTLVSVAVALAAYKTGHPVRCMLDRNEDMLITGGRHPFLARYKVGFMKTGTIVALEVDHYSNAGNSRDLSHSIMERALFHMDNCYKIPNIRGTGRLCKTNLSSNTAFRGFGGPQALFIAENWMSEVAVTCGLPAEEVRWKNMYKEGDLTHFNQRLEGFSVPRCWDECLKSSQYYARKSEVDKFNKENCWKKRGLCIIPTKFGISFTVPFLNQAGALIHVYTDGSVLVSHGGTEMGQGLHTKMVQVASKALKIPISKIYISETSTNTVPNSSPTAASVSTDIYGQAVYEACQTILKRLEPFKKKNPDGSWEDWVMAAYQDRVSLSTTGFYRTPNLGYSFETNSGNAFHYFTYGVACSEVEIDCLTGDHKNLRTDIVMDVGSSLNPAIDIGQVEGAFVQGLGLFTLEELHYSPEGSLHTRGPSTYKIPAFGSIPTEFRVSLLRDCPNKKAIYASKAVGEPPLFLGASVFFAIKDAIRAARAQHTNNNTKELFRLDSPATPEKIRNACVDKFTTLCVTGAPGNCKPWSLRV

The term IC50 denotes the concentration that gives 50% inhibition. A lower IC50 goes with higher potency. `O=C(O)c1ccc(/C=C2\Oc3cc(OCc4cccc5ccccc45)ccc3C2=O)cc1` had an IC50 in data set [1] of 69 nM.

`O=C(O)c1ccc(/C=C2\Oc3cc(O)ccc3C2=O)cc1` yielded a concentration for half-maximal inhibition (IC50) in data set [1] of 68 nM.

Broadly, the Ki is the equilibrium dissociation constant of an inhibitor or competing ligand from its target. For the molecule `COc1ccc(/C=C2\Oc3cc(OCC(=O)O)ccc3C2=O)c(OC)c1`, the Ki came to 2.9 nM in data set [2] and 34.3 nM in data set [3]. Inhibition in data set [1] was half-maximal at 1270 nM (IC50).

`COC(=O)COc1ccc2c(c1)O/C(=C\c1ccccc1)C2=O`: the “inhibition (INH)” value in data set [4] was “Not Active”.

`O=C(O)COc1ccc2c(c1)O/C(=C\c1ccccc1)C2=O` yielded a concentration for half-maximal inhibition (IC50) in data set [1] of 4470 nM.

With `C=C(C)COc1ccc2c(c1)O/C(=C\c1ccc(C(=O)O)cc1)C2=O`, the inhibition constant (Ki) in data set [2] came to 128 nM; in data set [3], 1200 nM. This molecule displayed an IC50 in data set [1] of 46 nM. For the same molecule, the “inhibition (INH)” value in data set [1] (cattle, 5 min) is on record as “Dose-dependent effect”.

Regarding `COc1ccccc1/C=C1\Oc2cc(OCC(=O)O)ccc2C1=O`, the IC50 in data set [1] was determined as 1300 nM.

The molecule `Cc1ccc(C)c(COc2ccc3c(c2)O/C(=C\c2ccc(C(=O)O)cc2)C3=O)c1` registered an IC50 in data set [1] of 62 nM.

`O=C(O)COc1ccc2c(c1)O/C(=C\c1ccccc1C(=O)O)C2=O` gave an IC50 in data set [1] of 3840 nM.

`O=C(O)COc1ccc2c(c1)O/C(=C\c1ccccc1Cl)C2=O` gave a half-maximal inhibitory concentration (IC50) in data set [1] of 1230 nM.

With `COc1ccc2c(c1)O/C(=C\c1ccc(C(=O)O)cc1)C2=O`, in data set [1], the IC50 is 80 nM.

In the case of `CC(Oc1ccc2c(c1)O/C(=C\c1ccccc1Cl)C2=O)C(=O)O` (stereo unspecified), the “inhibition (INH)” value in data set [4] is recorded as “Not Active”.

For the molecule `O=C(O)COc1ccc2c(c1)O/C(=C\c1ccc(C(=O)O)cc1)C2=O`, the IC50 in data set [1] turned out to be 150 nM.

In the case of `O=C(O)c1ccc(/C=C2\Oc3cc(OCc4ccccc4)ccc3C2=O)cc1`, in data set [1], the IC50 is 61 nM.

Turning to `COc1ccc(/C=C2\Oc3cc(OCC(=O)O)ccc3C2=O)cc1`, 1570 nM corresponded to half-maximal inhibition in data set [1] (IC50).

On to `O=C1/C(=C/c2ccc(O)c(O)c2)Oc2cc(O)ccc21` [SULFURETIN], for which, in data set [1], the IC50 is 3100 nM.
